According to ChEMBL document CHEMBL1152899, “Synthesis and preliminary screening of novel indole-3-methanamines as 5-HT4 receptor ligands” (Eur J Med Chem, 2009):
Activity calls are given as the source filed them. The rule behind the calls is not given here.

What was measured:
[1] = biological target: T1, 5-hydroxytryptamine receptor 4 (Homo sapiens, UniProt Q13639); experiment: Displacement of [3H]GR-113808 from human 5HT4b receptor expressed in COS7 cell membrane by scintillation counting
[2] = biological target: T1, 5-hydroxytryptamine receptor 4; experiment: Displacement of [3H]GR-113808 from human recombinant 5HT4b receptor expressed in HEK293 cells by scintillation counting; type: cell-based
[3] = biological target: T1, 5-hydroxytryptamine receptor 4; experiment: Displacement of [3H]GR-113808 from human 5HT4b receptor expressed in COS7 cell membrane at 1 uM by scintillation counting; type: cell membranes; conditions: COS-7

T1 sequence (Q13639 whole entry): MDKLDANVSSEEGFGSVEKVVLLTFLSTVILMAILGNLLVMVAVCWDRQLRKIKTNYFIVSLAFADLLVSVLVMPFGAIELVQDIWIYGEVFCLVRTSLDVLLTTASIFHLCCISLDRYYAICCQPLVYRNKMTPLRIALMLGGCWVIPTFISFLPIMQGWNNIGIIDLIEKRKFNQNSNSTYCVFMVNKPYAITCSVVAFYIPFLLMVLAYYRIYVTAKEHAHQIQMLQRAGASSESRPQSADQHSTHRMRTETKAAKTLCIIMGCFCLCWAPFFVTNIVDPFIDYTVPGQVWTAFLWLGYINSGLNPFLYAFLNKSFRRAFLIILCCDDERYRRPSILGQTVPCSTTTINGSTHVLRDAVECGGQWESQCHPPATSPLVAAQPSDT

Row | SMILES | Ki [1] | Ki [2] | Activity [3]
1 | COc1ccc2[nH]cc(CCN)c2c1 [5-METHOXYTRYPTAMINE] | 26.9 nM | 245 nM | –
2 | COc1ccc2[nH]cc(CNN3CCOCC3)c2c1 | 145 nM | – | Active
